Article PMC12434071, “Platinum-group metal half-sandwich complexes of 1-(α-D-glucopyranosyl)-4-hetaryl-1,2,3-triazoles: synthesis, solution equilibrium studies, and investigation of their anticancer and antimicrobial activities” (Frontiers in Chemistry, 2025)

Columns and labels:
[1] = test system: A2780 cells; assay: SRB assay on A2780 cells; format: cell-based; conditions: maximal inhibition; 48 h treatment; maximum concentration 100 µM
Method: For MTT assays, 4 × 10^3 A2780 cells were plated into 96-well plates, and for SRB assays, 1.5 × 10^3 A2780 cells were plated into 96-well plates. Cells were treated with the compounds in the concentrations indicated for either 4 h for an MTT assay or for 48 h for an SRB assay. Data are represented as average ± SD, from four biological replicates, with the exception of the MTT dataset of Ir-2b and the SRB datasets of 2b, Ru/Ir-2b, and Ir-3a, which were derived from three biological replicates. Individual assays were performed in duplicate. Values were normalized for vehicle-treated cells, and the absorbance for vehicle-treated cells equals 1. Data are represented as fold change compared to vehicle-treated controls. Normality was assessed using the D’Agostino–Pearson test. Statistical significance was assessed using a two-way ANOVA test followed by Tukey’s post hoc test. For better visibility, normality, transformations, statistical tests, and p values are presented in an MS Excel sheet at https://figshare.com/s/3a0aa60b66f3f746f41e. Color code: black—free ligand (2a,b or 3a), khaki—ruthenium complex (Ru-2a,b or Ru-3a), green—iridium complex (Ir-2a,b or Ir-3a).  FIGURE 7 The ruthenium, osmium, and iridium complexes of ligands 4a, 4b, and 5a are cytostatic on ovarian cancer models with a good therapeutic index. For SRB assays, 1.5 × 10^3 A2780 cells, 1.5 × 10^3 ID8 cells, or 4 × 10^3 primary fibroblasts were plated into 96-well plates. Cells were treated with the compounds in the concentrations indicated for 48 h. Data are represented as average ± SD, from four biological replicates on A2780 and human primary fibroblasts, except in the case of Os complexes, where experiments were performed in three biological replicates. ID8 cells were assessed in three biological replicates. Individual assays were performed in duplicate. Values were normalized for vehicle-treated cells, and the absorbance for vehicle-treated cells equals 1. Normality was assessed using the D’Agostino–Pearson test. Statistical significance was assessed using a two-way ANOVA test followed by Tukey’s post hoc test. For better visibility, normality, transformations, statistical tests, and p values are presented in an MS Excel sheet at https://figshare.com/s/3a0aa60b66f3f746f41e. Color code: black—free ligand (4a,b or 5a), khaki—ruthenium complex (Ru-4a,b), blue—osmium complex (Os-4a,b or Os-5a), green—iridium complex (Ir-4a,b), and red—rhodium complex (Rh-4a,b). An SRB assay measures protein content of cells in correlation with the cell number in an assay well and can therefore be used to assess cell proliferation or long-term cytostasis ([Skehan et al., 1990]). Cells were seeded into 96-well plates the day before the treatment for the assay. Cells were treated with the various compounds for 48 h. Then, the medium was removed, and cells were fixed with 10% trichloroacetic acid. Fixed cells were washed in distilled water three times, followed by staining with SRB (0.4 m/V% dissolved in 1% acetic acid) for 10 min. Stained cells were washed in 1% acetic acid five times; the acetic acid was removed, and the cells were left to dry. Protein-bound SRB was released by adding 100 µL of 10 mM Tris base. Plates were measured in a plate photometer (Thermo Scientific Multiscan GO spectrophotometer, Waltham, MA, United States) at 540 nm. Certain wells were designated to contain vehicle-treated cells on each plate. […] Statistical analysis was performed using version 8.0.1 of GraphPad Prism. Values were tested for normal distribution using the D’Agostino–Pearson or Shapiro–Wilk normality tests. When necessary, values were log-normalized or normalized using the Box–Cox or two-step normalization method ([Box and Cox, 1964]), as indicated in the MS Excel file listing the values at https://figshare.com/s/3a0aa60b66f3f746f41e. […]

[2] = test system: A2780 cells; assay: MTT reduction assay on A2780 cells; format: cell-based; conditions: maximal inhibition; 4 h treatment; maximum concentration 100 µM
Method: For MTT assays, 4 × 10^3 A2780 cells were plated into 96-well plates, and for SRB assays, 1.5 × 10^3 A2780 cells were plated into 96-well plates. Cells were treated with the compounds in the concentrations indicated for either 4 h for an MTT assay or for 48 h for an SRB assay. Data are represented as average ± SD, from four biological replicates, with the exception of the MTT dataset of Ir-2b and the SRB datasets of 2b, Ru/Ir-2b, and Ir-3a, which were derived from three biological replicates. Individual assays were performed in duplicate. Values were normalized for vehicle-treated cells, and the absorbance for vehicle-treated cells equals 1. Data are represented as fold change compared to vehicle-treated controls. Normality was assessed using the D'Agostino-Pearson test. Statistical significance was assessed using a two-way ANOVA test followed by Tukey's post hoc test. For better visibility, normality, transformations, statistical tests, and p values are presented in an MS Excel sheet at https://figshare.com/s/3a0aa60b66f3f746f41e. Color code: black-free ligand (2a,b or 3a), khaki-ruthenium complex (Ru-2a,b or Ru-3a), green-iridium complex (Ir-2a,b or Ir-3a).  FIGURE 5 The ruthenium, osmium, and iridium complexes of ligands 4a, 4b, and 5a decrease MTT reduction. For MTT assays, 4 × 10^3 A2780 cells, 3 × 10^3 ID8 cells, or 6 × 10^3 human primary fibroblasts were plated into 96-well plates. Cells were treated with the compounds in the concentrations indicated for 4 h. Data are represented as average ± SD, from four biological replicates on A2780, and from three biological replicates on ID8 and human primary fibroblasts. For the datasets of 5a and Os-5a on human primary fibroblasts, the data represent four biological replicates. Individual assays were performed in duplicate. Values were normalized for vehicle-treated cells, and the absorbance for vehicle-treated cells equals 1. Normality was assessed using the D'Agostino-Pearson test. Statistical significance was assessed using a two-way ANOVA test followed by Tukey's post hoc test. For better visibility, normality, transformations, statistical tests, and p values are presented in an MS Excel sheet at https://figshare.com/s/3a0aa60b66f3f746f41e. Color code: black-free ligand (4a,b or 5a), khaki-ruthenium complex (Ru-4a,b), green-iridium complex (Ir-4a,b), blue-osmium complex (Os-4a,b or Os-5a), and red-rhodium complex (Rh-4a,b). An MTT reduction assay measures the activity of mitochondrial complex I and can be used to detect toxicity ([[…] et al., 2016]). The assay was performed in a manner similar to that described by [[…] et al. (2023b)]. Briefly, cells were plated into 96-well plates the day before the assay. Cells were treated with the compounds for 4 h; then, MTT was added to a 0.5 mg/mL final concentration, and cells were incubated at 37°C in a cell incubator for 40-60 min, as a function of the cell line being assessed. The culture medium was removed, the reduced MTT dye was dissolved in dimethylsulfoxide, and plates were measured in a plate photometer (Thermo Scientific Multiscan GO spectrophotometer, Waltham, MA, United States) at 540 nm. Certain wells were designated to contain vehicle-treated cells on each plate. In calculations, the readings for these wells were considered to 1, and all readings were expressed relative to these values. Statistical analysis was performed using version 8.0.1 of GraphPad Prism. Values were tested for normal distribution using the D'Agostino-Pearson or Shapiro-Wilk normality tests. When necessary, values were log-normalized or normalized using the Box-Cox or two-step normalization method ([Box and Cox, 1964]), as indicated in the MS Excel file listing the values at https://figshare.com/s/3a0aa60b66f3f746f41e. The following statistical test, post hoc test, and the level of significance are indicated in the MS Excel file listing the values at https://figshare.com/s/3a0aa60b66f3f746f41e. […]

[3] = pH-potentiometric titration, stability constants (logβ) of ML complexes; format: physicochemical; conditions: [(η^5-Cp*)Rh]^2+; 0.20 M KCl, 25.0°C
From the text: […]. […] Comparing the two metal ion containing systems, the complexation with [(η^6-p-cym)Ru]^2+, starts at a more acidic pH, but hydrolytic processes occur already in the physiological pH range due to the higher affinity of the metal ion to hydrolysis. For the [(η^5-Cp*)Rh]^2+, these processes are shifted towards higher pH; […].
For solution studies, doubly deionized and ultra-filtered water was obtained from a Milli-Q RG (Millipore) water purification system. pH-potentiometric measurements were carried out at a constant ionic strength of 0.20 M KCl and at 25.0°C. Carbonate-free KOH solutions of known concentrations (ca. 0.2 M) were used as titrant. […]. A Mettler Toledo DL50 titrator equipped with a DG114-SC combined glass electrode was used for the pH-potentiometric measurements. […] The titrations were performed in the pH range of 2.0–11.0 in equilibrium-controlled mode, during which the pH equilibrium was assumed to be reached if a change in the measured potential was less than 0.1 mV within 90 s. […] The protonation constants of the ligands and the overall stability constants of the complexes, βp,q,r = [MpHqLr]/[M]^p[H]^q[L]^r (where “M” stands for [(η^5-Cp*)Rh(H2O)3]^2+ and “L” represents the completely deprotonated form of the ligand), were calculated with the aid of the SUPERQUAD ([Gans et al., 1985]) and PSEQUAD ([Zékány and Nagypál, 1985]) computer programs, respectively. […]

[4] = pH-potentiometric titration, protonation constants (pKa) of the ligands; format: physicochemical; conditions: 0.20 M KCl, 25.0°C; N-heterocyclic ring of the ligand
Method: In order to obtain information on the acidbase character of the ligands and on the stoichiometry and stability of the complexes present in aqueous medium, potentiometric titrations were carried out in selected systems. Based on the results, both 3a and 3b, having good enough solubility in water, are capable of releasing one hydrogen ion from the fully protonated forms in the measurable pH range (see Figure 3, “pK”). The calculated pK a values appear in Table 4; these values belong to the N-heterocyclic ring of the ligands. […]. For comparison, the previously prepared β-anomeric pair of 3a, compound 3a-β ([Kacsir et al., 2021]) in Table 4, was also studied.
For solution studies, doubly deionized and ultra-filtered water was obtained from a Milli-Q RG (Millipore) water purification system. pH-potentiometric measurements were carried out at a constant ionic strength of 0.20 M KCl and at 25.0°C. Carbonate-free KOH solutions of known concentrations (ca. 0.2 M) were used as titrant. […]. A Mettler Toledo DL50 titrator equipped with a DG114-SC combined glass electrode was used for the pH-potentiometric measurements. […] The titrations were performed in the pH range of 2.0–11.0 in equilibrium-controlled mode, during which the pH equilibrium was assumed to be reached if a change in the measured potential was less than 0.1 mV within 90 s. […]

[5] = test system: cisplatin-resistant A2780 cells; conditions: ref Kacsir et al., 2023a; cited from earlier work

logβ [ML] [3]	pK a [4]	Compound	A2780 SRB max % [1]	A2780 MTT max % [2]	IC50 [5]
		CC(=O)OC[C@H]1O[C@H](n2cc(-c3ccccn3)nn2)[C@H](OC(C)=O)[C@@H](OC(C)=O)[C@@H]1OC(C)=O [Complex 2a, 1-(2’,3’,4’,6’-Tetra-O-acetyl-α-D-glucopyranosyl)-4-(pyridin-2-yl)-1,2,3-triazole]	0%	0%	
		CC(=O)OC[C@H]1O[C@H](n2cc(-c3ccc4ccccc4n3)nn2)[C@H](OC(C)=O)[C@@H](OC(C)=O)[C@@H]1OC(C)=O [Complex 2b, 1-(2’,3’,4’,6’-Tetra-O-acetyl-α-D-glucopyranosyl)-4-(quinolin-2-yl)-1,2,3-triazole]	22.33%	0%	
5.55 (3)	3.56 (1)	OC[C@H]1O[C@H](n2cc(-c3ccc4ccccc4n3)nn2)[C@H](O)[C@@H](O)[C@@H]1O [Complex 3b, 1-(α-D-Glucopyranosyl)-4-(quinolin-2-yl)-1,2,3-triazole]			
		N.N.[Cl][Pt][Cl] [cisplatin]			16.5 µM
